# Results as given in patent US20240122865A1, “Methods of Protecting RNA” (Pfizer Inc., priority 2021, published 2024).
# Tested on: FgenL model RNA
# Experiment: TapeStation Assay, FgenL model RNA
# Format: biochemical, Trichoderma atroviride
# Parameters: Conc. FgenL#1 / Conc. FgenL#2: unit not given here
# Conditions: FgenL RNA, 20 mM amino acids, 50 mM CAPS pH 11, 50° C. 15 min, vs Time 0
# Method: These assays were performed with amino acids and compared to a no-degradation baseline control to gauge degree of protection imparted by the amino acid. Multiple functional assay approaches were used where differing endpoints were measured including a droplet digital PCR (ddPCR) assay where intact RNA sequence was quantitated, a size exclusion base hydrolysis degradation assay that used a size exclusion column to determine the degree of degradation occurring to an mRNA construct, and finally, a TapeStation assay that utilizes capillary electrophoresis and optical detection to measure intact RNA. […] Affinity selection by mass spectrometry (ASMS), native electrospray ionization mass spectrometry (nESI-MS) and nuclear magnetic resonance (NMR) may be used as several complementary approaches to ascertain compound binding to RNA. The latter techniques utilize MS to measure mass of bound compound alone (ASMS), or mass of RNA and bound compound (nESI-MS). The nESI-MS and NMR studies may be conducted to provide direct analytical quantification of resulting complex via measurement of mass (nESI-MS) or chemical shifts (NMR). The ASMS experiment is conducted to determine saturation binding of the compound to RNA where resulting apparent binding constants (KD,App) may be generated. Further descriptions of the functional and binding assays are provided in the section below.
# In principle, samples are loaded to the instrument where electrophoresis separates component RNA's on the basis of mass, and subsequently analyzes these optically as they travel through the capillary.
# RNA samples were diluted to the appropriate concentration to fall within the linear range of detection for the RNA ScreenTape Assay. Model Chi18 or FgenL RNAs were diluted to 50 ng/μL in 50 mM CAPS buffer pH 11. Amino acid stocks were made up in 50 mM CAPS pH 11 and re-adjusted to >pH 11 after solubilization. […] The samples were aliquoted to PCR tubes for each time point (Time 0 or 15 minutes). Degradation reaction: Samples were incubated at 50° C. for 0 to 15 minutes in a thermocycler, removed at the appropriate time point and placed on ice. Time 0 samples remained on ice.
SMILES,% Control N = 1,% Control N = 2
C[C@H](N)C(=O)O [Alanine],28.8%,23.2%
N=C(N)NCCC[C@H](N)C(=O)O [Arginine],4.2%,3.3%

# Same assay, conditions: FgenL RNA, 20 mM amino acids, 50 mM CAPS pH 11, 50° C. 15 min, vs Time 0, Avg N=2
row,SMILES,% Control Average
1,N=C(N)NCCC[C@H](N)C(=O)O [Arginine],3.8%

# Same assay, conditions: intact FgenL RNA after 15 min at 50° C., 20 mM amino acids in 50 mM CAPS pH 11, run #1
row,SMILES,Conc. FgenL#1
1,C[C@H](N)C(=O)O [Alanine],9.93
2,N=C(N)NCCC[C@H](N)C(=O)O [Arginine],1.46

# Same assay, conditions: intact FgenL RNA after 15 min at 50° C., 20 mM amino acids in 50 mM CAPS pH 11, run #2
row,SMILES,Conc. FgenL#2
1,C[C@H](N)C(=O)O [Alanine],8.05
2,N=C(N)NCCC[C@H](N)C(=O)O [Arginine],1.15

# Tested on: FgenL mRNA construct
# Experiment: Size Exclusion Base Hydrolysis Degradation Assay, FgenL
# Format: biochemical, Trichoderma atroviride
# Conditions: FgenL 0.1 mg/mL, 25 mM amino acid, 50 mM CAPS, T=0, replicate 1
# Method: (§1) Basic assay procedure: RNA samples were diluted to 1.0 mg/mL in DNAase/RNAase free water. Amino acids were dissolved in water to a stock solution of 100 mM and a solution of 500 mM CAPS pH 11 was used. The two mRNA constructs tested were FgenL and Chi18. Each individual sample volume was 50 μL. To determine the amount of 1 M NaOH needed to adjust the final pH to 11.0 after the addition of all sample components, the sample volume was increased 100 fold (5 mL), the volume of 1 M NaOH recorded and this value was translated back down to the 50 μL sample volume.
# (§2) The mRNA and amino acid were allowed to incubate for one hour prior to the addition of CAPS pH 11. All steps of the assay were conducted at room temperature.
# (§3) Degradation reaction: After the CAPS addition, the samples were injected onto the Waters H-Class UPLC system to record the first timepoint, T=O. This resulting chromatogram was processed by integrating the area of absorbance at 250 nm for the mRNA construct. Immediately following this timepoint, the pH was adjusted to 11. Subsequent time points (2 hrs, 10 hrs, and 24 hrs) recorded the Absorbance Units (peak area) at 250 nm as a percentage of the peak area determined at T=O. Integration of the chromatogram for subsequent timepoints was conducted by analyzing the area of absorbance at 250 nm contained within the same time window in which the peak eluted in T=0 for the 100% intact mRNA.
row,SMILES,T0 R1 peak area at 250 nm
1,C[C@H](N)C(=O)O [Alanine],17478
2,N=C(N)NCCC[C@H](N)C(=O)O [Arginine],14624

# Same assay, conditions: FgenL, 25 mM amino acid, 50 mM CAPS pH 11, room temperature, 2 hrs
row,SMILES,"T2 Avg, peak area as percentage of T=0"
1,C[C@H](N)C(=O)O [Alanine],44.3%
2,N=C(N)NCCC[C@H](N)C(=O)O [Arginine],0.0%

# Same assay, conditions: FgenL, 25 mM amino acid, 50 mM CAPS pH 11, room temperature, 2 hrs, replicate 1
row,SMILES,T2 R1 peak area at 250 nm
1,C[C@H](N)C(=O)O [Alanine],7051
2,N=C(N)NCCC[C@H](N)C(=O)O [Arginine],0

# Same assay, conditions: FgenL, 25 mM amino acid, 50 mM CAPS pH 11, room temperature, 10 hrs
row,SMILES,"T10 Avg, peak area as percentage of T=0"
1,C[C@H](N)C(=O)O [Alanine],0.0%
2,N=C(N)NCCC[C@H](N)C(=O)O [Arginine],0.0%

# Same assay, conditions: FgenL, 25 mM amino acid, 50 mM CAPS pH 11, room temperature, 10 hrs, replicate 1
row,SMILES,T10 R1 peak area at 250 nm
1,C[C@H](N)C(=O)O [Alanine],0
2,N=C(N)NCCC[C@H](N)C(=O)O [Arginine],0

# Same assay, conditions: FgenL, 25 mM amino acid, 50 mM CAPS pH 11, room temperature, 24 hrs
row,SMILES,"T24 Avg, peak area as percentage of T=0"
1,C[C@H](N)C(=O)O [Alanine],0.0%
2,N=C(N)NCCC[C@H](N)C(=O)O [Arginine],0.0%

# Same assay, conditions: FgenL, 25 mM amino acid, 50 mM CAPS pH 11, room temperature, 24 hrs, replicate 1
row,SMILES,T24 R1 peak area at 250 nm
1,C[C@H](N)C(=O)O [Alanine],0
2,N=C(N)NCCC[C@H](N)C(=O)O [Arginine],0

# Same assay, conditions: FgenL, 25 mM amino acid, T=0 (reference)
row,SMILES,"T0 Avg, peak area as percentage of T=0"
1,C[C@H](N)C(=O)O [Alanine],100.0%
2,N=C(N)NCCC[C@H](N)C(=O)O [Arginine],100.0%

# Tested on: Chi18 mRNA construct
# Experiment: Size Exclusion Base Hydrolysis Degradation Assay, Chi18
# Format: biochemical, Trichoderma atroviride
# Conditions: Chi18 0.1 mg/mL, 25 mM amino acid, 50 mM CAPS, T=0, replicate 1
# Method: as §1, §2, §3
row,SMILES,T0 R1 peak area at 250 nm
1,C[C@H](N)C(=O)O [Alanine],19606
2,N=C(N)NCCC[C@H](N)C(=O)O [Arginine],20698

# Same assay, conditions: Chi18, 25 mM amino acid, 50 mM CAPS pH 11, room temperature, 2 hrs
row,SMILES,"T2 Avg, peak area as percentage of T=0"
1,C[C@H](N)C(=O)O [Alanine],71.6%
2,N=C(N)NCCC[C@H](N)C(=O)O [Arginine],76.7%

# Same assay, conditions: Chi18, 25 mM amino acid, 50 mM CAPS pH 11, room temperature, 2 hrs, replicate 1
row,SMILES,T2 R1 peak area at 250 nm
1,C[C@H](N)C(=O)O [Alanine],13211
2,N=C(N)NCCC[C@H](N)C(=O)O [Arginine],15655

# Same assay, conditions: Chi18, 25 mM amino acid, 50 mM CAPS pH 11, room temperature, 10 hrs
row,SMILES,"T10 Avg, peak area as percentage of T=0"
1,C[C@H](N)C(=O)O [Alanine],18.1%
2,N=C(N)NCCC[C@H](N)C(=O)O [Arginine],0.0%

# Same assay, conditions: Chi18, 25 mM amino acid, 50 mM CAPS pH 11, room temperature, 10 hrs, replicate 1
row,SMILES,T10 R1 peak area at 250 nm
1,C[C@H](N)C(=O)O [Alanine],2730
2,N=C(N)NCCC[C@H](N)C(=O)O [Arginine],0

# Same assay, conditions: Chi18, 25 mM amino acid, 50 mM CAPS pH 11, room temperature, 24 hrs
row,SMILES,"T24 Avg, peak area as percentage of T=0"
1,C[C@H](N)C(=O)O [Alanine],0.0%
2,N=C(N)NCCC[C@H](N)C(=O)O [Arginine],0.0%

# Same assay, conditions: Chi18, 25 mM amino acid, 50 mM CAPS pH 11, room temperature, 24 hrs, replicate 1
row,SMILES,T24 R1 peak area at 250 nm
1,C[C@H](N)C(=O)O [Alanine],0
2,N=C(N)NCCC[C@H](N)C(=O)O [Arginine],0

# Same assay, conditions: Chi18, 25 mM amino acid, T=0 (reference)
row,SMILES,"T0 Avg, peak area as percentage of T=0"
1,C[C@H](N)C(=O)O [Alanine],100.0%
2,N=C(N)NCCC[C@H](N)C(=O)O [Arginine],100.0%

# Molecular target: Chi18 model RNA
# Experiment: Droplet Digital Polymerase Chain Reaction (ddPCR) Assay, Chi18
# Format: biochemical, Trichoderma atroviride
# Conditions: percent protection, pH 11.0, 30° C., 16 hours, n = 2
# Method: (§4) The ddPCR assays measure RNA integrity by converting intact RNA to cDNA by reverse transcription, then performing digital PCR in thousands of nanoliter-sized droplets for each sample. PCR is performed within each droplet, which allows for more sensitive detection of subtle changes in RNA concentration compared to traditional PCR or qPCR. Additionally, primers/probes specific to the 5′ end of the RNA/cDNA transcript(s) are used to assess fragment integrity—e.g. degraded RNA will have fewer 5′ positive droplets. The BioRad QX200 Droplet Digital PCR System was used for the ddPCR workflow.
# (§5) Basic assay procedure: RNA samples (Chi18 or FgenL fragments) were diluted to 25 fg/μL or 10 fg/μL, respectively, in 50 mM […] buffer pH 11.0. Amino acid stocks were made up in 50 mM CAPS buffer, pH 11.0 and subsequently re-adjusted to pH 11.0, post solubilization. Amino acid stocks were tested in a dose-response format to determine EC50. An amino acid dilution plate containing a ˜300 mM (or appropriate) top-concentration of amino acid in 50 mM CAPS buffer was serially (half-log) diluted for 10 times. 0.6 μL of this compound dilution plate was spotted into a 96-well PCR plate (Thermo). Sample RNAs were added (6 μL) and incubated with test amino acid as described below.
# (§6) Degradation reaction: Treated RNAs were incubated for 16 hours at 30° C. for Chi18 samples or 44° C. for FgenL samples. Upon completion of the degradation reaction, cDNA was made from the intact RNA by Reverse Transcription and ddPCR run for each sample (96 well plates). Positive 5′ droplet values were divided by the total accepted droplet values for each sample and a ratio value generated for each sample.
# (§7) EC50 was determined by using a four parameter logistic equation: Y=A+((B−A)/(1+(C/X)D)); where Y is percent protection, X is compound concentration, A and B are minimum and maximum asymptotes, respectively, C is EC50, and D is Hill slope.
row,SMILES,EC50
1,C[C@H](N)C(=O)O [Alanine],> 30 mM
2,N=C(N)NCCC[C@H](N)C(=O)O [Arginine],7.6 mM

# Tested on: FgenL model RNA
# Experiment: not given
# Format: biochemical, Trichoderma atroviride
# Conditions: percent protection, pH 11.0, 44° C., 16 hours, n = 2
# Method: as §4, §5, §6, §7
row,SMILES,EC50
1,C[C@H](N)C(=O)O [Alanine],> 30 mM
2,N=C(N)NCCC[C@H](N)C(=O)O [Arginine],> 30 mM
